Earlier results, collected in US20070197568A1 (priority 2005, published 2007).

Details: animals, at doses that inhibit tumor growth

O=C(CCCCCCC(=O)Nc1ccccc1)NO [SAHA, N-Hydroxy-N′-phenyl octanediamide]
toxicity to the animal: no toxicity
